# Reference: ChEMBL document CHEMBL1145738, “Peptidyl aldehyde inhibitors of calpain incorporating P2-proline mimetics” (Bioorg Med Chem Lett, 2003)
# Non-standard residues stand in square brackets, D forms with d. Residues, ends and D or L forms follow the SMILES beside them. ξ: configuration not given here. *: point of attachment. Tos = Cc1ccc(S(=O)(=O)*)cc1; ξF = NC(Cc1ccccc1)C(=O)O; Pip = O=C(O)[CH]1CCCCN1; Aze = O=C(O)[CH]1CCN1
# Legend:
# [1] = molecular target: T1, Calpain small subunit 1 (Sus scrofa, UniProt P04574); test: Compound tested for inhibition of porcine Calpain 1
# T1 sequence (P04574 whole entry): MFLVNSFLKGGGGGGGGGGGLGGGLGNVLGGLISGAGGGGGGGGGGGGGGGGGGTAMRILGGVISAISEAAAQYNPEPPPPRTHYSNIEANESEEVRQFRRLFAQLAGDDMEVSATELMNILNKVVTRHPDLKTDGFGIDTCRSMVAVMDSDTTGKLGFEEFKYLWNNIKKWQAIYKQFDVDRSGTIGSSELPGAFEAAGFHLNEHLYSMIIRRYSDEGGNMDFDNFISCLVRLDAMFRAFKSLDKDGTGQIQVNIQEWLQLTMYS
# [2] = molecular target: T1, Calpain small subunit 1; test: Compound tested for inhibition of porcine calpain I
# [3] = molecular target: T2, Cathepsin B (Homo sapiens, UniProt P07858); test: Compound tested for inhibition of human liver cathepsin B
# [4] = molecular target: T2, Cathepsin B; test: (§1) Selectivity ratio of cathepsin B to calpain I
# [5] = molecular target: T2, Cathepsin B; test: Compound tested for inhibition of human liver Cathepsin B
# [6] = as §1
Structure (SMILES),Ki [1],Ki [2],Ki [3],Selectivity ratio [4],Ki [5],Selectivity ratio [6]
Cc1ccc(S(=O)(=O)N2CCSC2C(=O)NC(C=O)Cc2ccccc2)cc1 (stereo not drawn),0.07 µM,,,,,
Cc1ccc(S(=O)(=O)N[C@@H](CC(C)C)C(=O)NC(C=O)Cc2ccccc2)cc1 (stereo partly drawn) (Tos-Leu-[ξF]-aldehyde),,0.02 µM,0.07 µM,4,,
Cc1ccc(S(=O)(=O)N2CCCC2C(=O)NC(C=O)Cc2ccccc2)cc1 (stereo not drawn) (Tos-Pro-Phe-aldehyde; configuration not given here),0.08 µM,,,,12.1 µM,151
Cc1ccc(S(=O)(=O)N2CCC2C(=O)NC(C=O)Cc2ccccc2)cc1 (stereo not drawn) (Tos-[Aze]-Phe-aldehyde; configuration not given here),0.25 µM,,,,2.75 µM,11
Cc1ccc(S(=O)(=O)N2CCCCC2C(=O)NC(C=O)Cc2ccccc2)cc1 (stereo not drawn) (Tos-[Pip]-Phe-aldehyde; configuration not given here),,0.54 µM,5.26 µM,10,,
